According to ChEMBL document CHEMBL1158002, “Aurantoside C, a new tetramic acid glycoside from the sponge Homophymia conferta” (J Nat Prod, 1999):
≈ marks a conversion by molar mass, not a printed value.

Experiment: Toxicity against brine shrimp
Format: organism-based
Conditions: artemia, in vivo

Compound `C/C(Cl)=C/C=C/C(Cl)=C/C=C/C=C/C=C/C=C/C(O)=C1\C(=O)[C@H](CC(N)=O)N([C@@H]2OC[C@@H](O)[C@H](O)[C@H]2O[C@@H]2O[C@H](CO)[C@@H](O[C@@H]3O[C@H](C)[C@@H](O)[C@@H]3O)[C@@H]2O)C1=O` [AURANTOSIDE C] has an LC50 of 50 µg/mL (≈ 60.3 µM).
